Source: patent publication US20230190887A1, “TARGETING G3BP AGGREGATION TO PREVENT NEURODEGENERATION” (priority 2019, published 2023)
Entries after “also recorded” stand apart in the source; their conditions may differ. Where two headings read alike, the source gives them in different places.

Experiments:
[1] = tested on: G3BP1-mCherry aggregates in DRG axons; assay: Live cell imaging of G3BP1-mCherry granules; format: cell-based, rat; conditions: 10 μM peptide, 15 min
Experimental: Live cell imaging for G3BP1-mCherry granules. DRG neurons were transfected with G3BP1-mCherry, and 36 h later distal axons were imaged using Leica SP8X confocal microscope with environmental chamber maintained at 37° C., 5% CO2 (with 63×/1.4 NA oil immersion objective). G3BP1-mCherry signals were imaged as single optical planes in the axon shaft every 2 s for 100 frames (at 540 nm excitation and 23% white light laser power; 565-597 nm emission). To study the effect of the G3BP1 190-208 or 168-189 peptide, 10 μM FITC-conjugated peptide was added to the media and 15 min later imaging was continued.
For quantitation of G3BP1-mCherry aggregates density and size, a 100 μm of the axon shaft was considered (≥200 μm from cell body). Thresholding was applied to acquired image sequences using ImageJ to generate binary masks.
ImageJ particle analyzer was used for analysis. G3BP1 aggregates with area≥1 μm^2 were considered as SG-like structures. For analyzing the G3BP1 aggregate velocity, ImageJ Trackmate plug-in was used.

[2] = tested on: TIA1, G3BP1 and TDP43 granules in E12.5 motor neurons; assay: Stress granule protein granules in neurites of arsenite-treated motor neurons; format: cell-based, mouse
Source text: To further evaluate whether mutant TIA1 and TDP43 protein aggregates are affected by G3BP1 190-208 peptide, the inventors expressed the mutant proteins in embryonic motor neurons and assessed granules formed in neurites with or without arsenite treatment either in the presence of G3BP1 190-208 or control 168-189 peptide.
FIG. 6: Cell permeable G3BP1 190-208 peptide decreases granules formed by endogenous TIA1 and TDP43 and exogenous TDP43 and TIA1 mutants in motor neurons after sodium arsenite exposure. (A) Embryonic motor neurons isolated from E12.5 mouse embryos were exposed to sodium arsenite (0.5 mM) for 30 minutes and then treated with 10 μM 190- 208 or […] peptide. After fixation endogenous TIA1 was visualized by immunostaining. The number of TIA1 granules greater than 2 μm^2 per 100 μm of neurite were measured. (B) E12.5 motor neurons were treated as described in (A) and immunostaining was used to detect endogenous G3BP1 protein. The number of G3BP1 granules greater than 2 μm^2 per 100 μm of neurite were measured. […] (C) E12.5 motor neurons expressing TIA1-GFT or ALS/FTD-associated mutants TIA1-A381T, TIA1-E384K were treated with sodium arsenite (0.5 mM) for 30 minutes followed by treatment with either 10 μM 190-208 G3BP1 or 168-189 control peptide. The number of cells containing TIA1-GFP puncta were measured 2 μm^2 per 100 μm of neurite and results are reported relative to non-treated controls. The number of TIA1-GFP granules in neurites decreased for WT and ALS/FTD mutants after treatment with 190-208 G3BP1 as compared to the 168-189 control peptide treated cells. (I)) E12.5 motor neurons expressing flag-tagged wildtype TDP43 or ALS-associated mutants TDP43-M337V and TDP43-Q331.K were treated with sodium arsenite (0.5 mM) for 30 minutes followed by treatment with either 10 μM 190-208 G3BP1 or 168189 control peptide. Flag-TDP43 was detected by immunostaining using the anti-flag-antibody. The number of flag-TDP43 granules greater than 2 μm^2 were measured per 100 μm of neurite and the results are reported relative to non-treated controls. The number of Flag-TDP43 granules in neurites were decreased after treatment with 190-208 G3BP1 peptide as compared to the 168-189 control peptide in both WT and ALS/FTD mutants expressing cells. ([…] over 3 cultures; by two-way ANOVA with Tukey HSD post-hoc),

[3] = tested on: wild-type or ALS/FTD-associated mutant (P362L, A381T, E384K) TIA1-GFP in HEK cells; assay: TIA1-GFP aggregates in arsenite-treated HEK cells; format: cell-based
Source text: The inventors tested whether the G3BP1 190-208 peptide would prevent the aggregation of granules formed by TIA1 and TDP43 mutant proteins associated with ALS and FTD. […] Next, we treated HEK cells expressing wild-type and or ALS/FTD-associated mutants (P362L, A381T, or E384K)TIA1, with arsenite a potent inducer of SG aggregation, in addition to either G3BP1 190-208 peptide or control G3BP1 168-189 peptide.
FIG. 5: Cell permeable G3BP1 190-208 peptide decreases TIA1-GFP puncta formed due to expression of disease causing TIA1 mutants. (A) Representative images of HEK cells transfected with GFP-tagged wild-type or ALS/FTD-associated mutants (P362L, A381T, or E384K) TIA1. Arrows show TIA1-GFP puncta. (B) Quantification of the percentage of cells with TIA1-GFP puncta greater than 2 μm^2 area in transfected cells relative TIA1-WT-GFP expressing cells. Consistent with previous studies, ALS/FTD- associated TIA1 mutants show increased number of TIA1-GFP puncta as compared to WT-TIA1. (C) HEK cells expressing TIA1-GFP or ALS/FTD-associated mutants TIA1-P362L, TIA1-A381T, TIA1-E384K were treated with sodium arsenite (0.5 mM) for 30 minutes followed by treatment with either 10 μM 190-208 G3BP1 or 168-189 control peptide. The number of cells containing TIA1-GFP puncta were measured and results are reported relative to non-treated controls. Number of HEK cells with TIA1-GFP granules both for WT and ALS/FTD mutants decreased after treatment with 10 μM 190-208 G3BP1 as compared to the 168-189 control peptide treated cells. (N≥90 over 3 cultures; by two-way ANOVA with Tukey HSD post-hoc). Scale bar: 20 μm.

DRG neurons = assay: Axon growth in dissociated DRG cultures; format: cell-based, rat; conditions: 10 μM Tat-fused peptide added to DRG cultures immediately after plating
Experimental: Cell culture. For primary neuronal cultures, L4-5 DRG were harvested in Hybernate-A medium (BrainBits) and then dissociated as described. After centrifugation and washing in DMEM/F12 (Life Technologies), cells were resuspended in DMEM/F12, 1×N1 supplement (Sigma), 10% fetal bovine serum (Hyclone), and 10 μM cytosine arabinoside (Sigma). Dissociated DRGs were plated immediately on laminin/poly-L-lysine-coated coverslips or transfected (see below) and then plated on coated coverslips.
[…] Neurite outgrowth was assessed 24 h after addition of peptides. For the cortical cultures, 10 μM peptide was applied to the axonal compartment at 3 d in vitro (DIV) and axonal growth was assessed at 6 DIV. For iMotor neurons, 20 μM peptides were immediately added and neurite growth was assessed 24 h later.
For neurite outgrowth, images from 60 h DRG cultures were analyzed for neurite outgrowth using WIS-Neuromath. Axon morphology was visualized using GFP and/or NF immunofluorescence as described. Differentiated hiPSC neuron image acquisition and neurite length quantification was performed using Arrayscan XTI (Thermo Fisher).

[4] = target: HuR (ELAVL1), endogenous rat protein in axons of cultured adult DRG neurons (rat) (UniProt B5DF91); assay: proximity ligation assay in axons of fixed rat DRG neurons
[5] = target: DCP1A, endogenous rat protein in axons of cultured adult DRG neurons (rat) (UniProt D4AE80); assay: as above
[6] = tested on: G3BP1, TIA1, FMRP, FXR, TDP43 and FUS-TLS aggregates in E18 midbrain neurons; assay: RNA binding protein aggregates along axons of MPP+-treated midbrain neurons; format: cell-based, rat; conditions: 100 μM MPP+ 6 hours
Experimental: FIGS. 14A-14F show PD-causing MPP^+ increases RNA binding protein aggregation. Representative confocal images for G3BP1 (magenta), FMRP (green), FXR (red) and neurofilament immunoreactivity along axons for E18 midbrain neuron cultures (7 DIV)±100 μM MPP^+ for 6 hours are shown in FIG. 14A. […] Quantifications for colocalization of FMRP, FXR, TDP43, FUS-TLS and TIA1 with G3BP1 in axons of E18 midbrain neurons treated. as in FIG. 14A are shown as average Pearson's coefficient±SEM shown in FIG. 14E.

[7] = tested on: G3BP1 aggregates in E12.5 motor neurons; assay: Endogenous G3BP1 aggregates in MPP+-treated motor neurons; format: cell-based, mouse; conditions: 100 μM MPP+ alone vs control
Experimental: Previous studies have shown that, exposure of midbrain neurons results in formation of stress granules. To test whether treatment of motor neurons with mitotoxin MPP+ results in the formation of stress granules the inventors stained the MPP+-treated neurons for G3BP1 protein.
(A) Quantification of mitotoxin/neurotoxin MPP+-induced degeneration of DIV7 E12.5 motor neuron neurites after exposure of cultures to 100 μM MPP+ and either 10 μM 190-208 G3BP1 or 168-189 control peptide. As controls, neurons treated with solvents were used. (B) Representative images of G3BP1 (green) and NF-labeled (red) E12.5 motor neurons under control or after treatment with 100 μM MPP+ [scale bar=10 μm]. (C) distribution of sizes of endogenous G3BP1 aggregate per 100 μm neurite is shown as indicated bins from motor neurons cultures as treated in (B). (N≥80 neurites over three repetitions; by one-way ANOVA with Tukey HSD post-hoc). […] (D) Endogenous G3BP1 aggregate sizes per 100 μm neurite indicated as bins for motor neurons either untreated or treated with MPP+ alone or with addition of 10 μM 190-208 G3BP1 or 168-189 control peptide. […] (N≥90 over 3 cultures; by one-way ANOVA with Tukey HSD post-hoc)

[8] = tested on: G3BP1 aggregates in midbrain neurons; assay: Endogenous G3BP1 aggregates in MPP+-treated midbrain neurons; format: cell-based, rat; conditions: MPP+ alone
Source text: Given that the G3BP1 190-208 peptide prevents degeneration induced by treatment with neurotoxins such as MPP+ and Aβ oligomer and decreases G3BP1 aggregates formed due MPP+ and Aβ treatment.
(A) Size of endogenous G3BP1 aggregates per 100 μm of neurite is shown as indicated bins from midbrain cultures under control conditions and after treatment with MPP+alone or with 190-208 G3BP1 or 168-189 peptides. (B) Size distribution of endogenous G3BP1 aggregates per 100 μm of neurite is shown from cortical neurons treated with 1 μM Aβpeptide or with […] 190-208 G3BP1 or 168-189 control peptide. Non-treated neurons were used as a control. […] (N≥90 over 3 cultures; by two-way ANOVA with Tukey HSD post-hoc).

HB9::GFP MN axons = format: cell-based, mouse
MN axons = format: cell-based, mouse
[9] = local axonal administration, Anisomycin 40 μM, Cycloheximide 150 μM, NaAsO2 250 μM
[10] = applied exclusively in axons, NaAsO2 250 μM, Anisomycin 40 μM, Cycloheximide 150 μM

HuR (ELAVL1), endogenous rat protein in axons of cultured adult DRG neurons (rat), sequence (B5DF91 2-326): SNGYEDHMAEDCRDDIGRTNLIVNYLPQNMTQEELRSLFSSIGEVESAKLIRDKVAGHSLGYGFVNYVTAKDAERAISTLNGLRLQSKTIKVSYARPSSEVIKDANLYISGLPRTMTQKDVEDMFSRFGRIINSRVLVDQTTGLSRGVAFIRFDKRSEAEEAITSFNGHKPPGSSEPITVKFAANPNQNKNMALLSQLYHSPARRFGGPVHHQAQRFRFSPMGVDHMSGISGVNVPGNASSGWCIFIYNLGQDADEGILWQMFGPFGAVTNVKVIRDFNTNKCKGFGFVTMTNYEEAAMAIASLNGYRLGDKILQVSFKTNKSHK

DDSGTFYDQTVSNDLEEHLEEP-YGNKKNNQNNN [168-189 peptide, reference compound]
density of axonal G3BP1-mCherry aggregates along 100 μm axon [1]: no change in SG density
size of G3BP1-mCherry aggregates (SG-like structures) [1]: modest but insignificant decrease in SG size
number of large TIA1-GFP granules (>2 μm^2) in neurites ([2]; WT and mutant TIA1-GFP, sodium arsenite 0.5 mM 30 minutes, then 10 μM peptide): no such effect
size of TIA1 aggregates ([3]; sodium arsenite 0.5 mM 30 minutes, then 10 μM peptide, WT and mutant TIA1): no such change in aggregate size
axon length (DRG neurons): lacked activity

G3BP1 (Ras GAP SH3 domain binding protein 1), endogenous rat protein in axons of cultured adult DRG neurons (from UniProt D3ZYS7 1-465)
PLA signals per area [4]: 0.038
PLA signals per area [5]: 0.027 signals/m^2

C[n+]1ccc(-c2ccccc2)cc1 [MPP+, 1-methyl-4-phenylpyridinium, reference compound]
TIA1, FMRP, FXR, TDP43 and FUS-TLS colocalization with G3BP1 [6]: significant increase
aggregate sizes of G3BP1, TIA1, FMRP, FXR, TDP43 and FUS-TLS along axons [6]: significantly increases the aggregate sizes
overall levels of these proteins [6]: without any change in overall levels
endogenous G3BP1 aggregates [7]: increase in G3BP1 aggregates; also recorded: formation of larger G3BP1 granules
endogenous G3BP1 aggregates [8]: increase in endogenous G3BP1 aggregates

C[C@@H]1C[C@@H]([C@H](O)CC2CC(=O)NC(=O)C2)C(=O)[C@@H](C)C1 [Cycloheximide]
mitochondrial membrane potential (TMRE) (HB9::GFP MN axons; [9]): notable reduction in mitochondrial membrane potential
axonal translation (OPP puncta) (MN axons; [10]): major decrease in axonal translation

EESEEEVEEPEENQQSPEVV-YGNKKNNQNNN (EESEEEVEEPEENQQSPEVVYGNKKNNQNNN; listed as Rattus norvegicus) [147-166, cell-permeable Tat fusion peptide corresponding to residues 147-166 of rat G3BP1]
axon length (DRG neurons): increased axon length

COc1ccc(C[C@H]2NC[C@H](O)[C@H]2OC(C)=O)cc1 [Anisomycin]
mitochondrial membrane potential (TMRE) (HB9::GFP MN axons; [9]): notable reduction in mitochondrial membrane potential
axonal translation (OPP puncta) (MN axons; [10]): major decrease in axonal translation

sodium arsenite [NaAsO2, reference compound]
mitochondrial membrane potential (TMRE) (HB9::GFP MN axons): notable reduction in mitochondrial membrane potential
size of endogenous TIA1 and G3BP1 aggregates ([2]; arsenite alone): increase in the size of endogenous TIA1 and G3BP1 aggregates
number of larger TIA1-GFP granules (>2 μm^2) ([2]; arsenite alone, WT and mutant TIA1-GFP): increase in the number of larger granules
number of large flag-TDP43 aggregates (>2 μm^2) ([2]; arsenite alone, WT and mutant flag-TDP43): increased number of large flag-TDP43 aggregates
axonal translation (OPP puncta) (MN axons): major decrease in axonal translation
size of TIA1 aggregates ([3]; sodium arsenite 0.5 mM alone, WT and mutants): increases size of TIA1 aggregates
